# Results as given in patent publication US10100077B2, “6-aryl-9-glycosylpurines and use thereof” (UNIVERZITA PALACKEHO V OLOMOUCI, priority 2014, dated 2018).
# Assays:
# [1] = Calcein AM cytotoxicity assay, MCF-7; assay type: cell-based; settings: human, MCF-7 breast cancer cells
# Summary of the method: (§1)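 K562, MCF-7 and NIH3T3 cells (10^4/well) in DMEM with 10% FBS were preincubated for 24 hrs, then given six 4-fold dilutions, usually from 166.7 μM, in duplicate for 72 hrs at 37° C. Viability was read by Calcein AM fluorescence after 1 hour, with GI50 from survival relative to control.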
# [2] = test system: skin fibroblasts BJ and keratinocytes HaCaT; assay: MTT in vitro cytotoxicity test for skin cells; assay type: cell-based; settings: Homo sapiens; MTT, 72 hour treatment, BJ and HaCaT, maximal concentration 50 microM
# Summary of the method: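 BJ fibroblasts and HaCaT keratinocytes (~5,000 cells/well, seeded 24 h prior) exposed 72 h to sixfold dilutions from 50 microM; DMSO vehicle as negative control. MTT added at 0.5 mg/ml final for 3 h, formazan dissolved in DMSO, absorbance read at 570 nm (640 nm reference). IC50 taken from dose-response curves.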
# [3] = Calcein AM cytotoxicity assay, K562; assay type: cell-based, human; settings: human, K562 erythroleukemia cells
# Summary of the method: as §1
# [4] = Calcein AM cytotoxicity assay, NIH3T3; assay type: cell-based, mouse; settings: mouse, NIH3T3 fibroblasts
# Summary of the method: as §1
compound,measurement,setting,value
COc1cccc(CNc2ncnc3c2ncn3[C@@H]2O[C@H](CO)[C@@H](O)[C@@H]2O)c1 [6-(3-methoxybenzylamino)-9-β-D-arabinofuranosylpurine],GI50 at 72 h,[1],> 100 µM
same,IC50,[2],> 50 µM
same,GI50 at 72 h,[3],> 100 µM
same,GI50 at 72 h,[4],> 100 µM
